From paper PMC6399351, “Cationic Intrinsically Disordered Antimicrobial Peptides (CIDAMPs) Represent a New Paradigm of Innate Defense with a Potential for Novel Anti-Infectives” (Scientific Reports, 2019)
In brackets after ≈: the same amount, converted by molar mass. Several values for one entry are separate records, joined by “and”; a condition that tells them apart may be missing. Identical values can stand only once. Like-named read-outs stand apart in the source and are kept apart here. Square brackets hold non-standard residues; d marks the D form. Ends that are not written are not given here. Peptide text beside a SMILES is read from it. * marks the point of attachment. Palmitoyl = CCCCCCCCCCCCCCCC(=O)*

Assays:
C. albicans ATCC 24433 = assay: CFU assay of antimicrobial activity; format: cell-based, Candida albicans; conditions: 10 mM NaP
Procedure: Bacteria were cultivated in either brain heart infusion medium (BHI), lysogeny broth (LB) or tryptic soy broth (TSB)[88]. If not otherwise stated, bacteria were incubated under shaking conditions (37 °C at 170 rpm) or as indicated on the ATCC- or DSM-data sheets. Candida albicans was cultured for 3 days on Yeast Extract-Peptone Dextrose (YPD) agar at 30 °C and yeast suspensions at appropriate density were treated with CIDAMPs as indicated.
(§1) All purified peptides and recombinant proteins were applied using a colony forming unit (CFU) assay in different media. Bacteria were grown to early log-phase in BHI, washed either with 10 mM Na-P, pH 7.4/1% TSB or pH 5.5/1% TSB, or pH 5.5 without TSB or BHI, and adjusted to a concentration of 10^4–10^5 colony forming units (CFU)/ml. For cell number control, 100 µl aliquots were diluted 1:10, 1:100 and 1:1000 and plated in duplicates on BHI agar plates. To 100 µl aliquots of the bacteria, suspended in the respective medium (10 mM Na-P buffer pH 7,0–7,4/ 1% (w/v) TSB; 10 mM Na-P buffer pH 5,5/ 1% (w/v) TSB; 10 mM Na-P buffer pH 7,0–7,4/ 1% (w/v) TSB pH 7,0–7,4/ 0,25% (w/v) glucose; 10 mM Na-P buffer pH 5,5/ 0,25% (w/v) glucose, respectively), 10 µl of a solution of the peptide or protein (two-fold dilutions, from 300 µg/ml or 150 µg/ml down to 19 ng/ml), dissolved in 0.01% (v/v) acetic acid, were added.
(§2) Then bacteria were incubated for 2 h at ambient temperature, if not otherwise stated. 10 µl of 0.01% (v/v) acetic acid, added to 100 µl aliquots of the bacteria in the respective medium, served as negative control. From each test, 1:10 and 1:100 dilutions were generated and plated as duplicates of 100 µl aliquots on BHI agar plates. After 16 h incubation at 37 °C, CFU were counted using a colony counter (Bio Kobe, Japan) and expressed as mean of the duplicate estimation to achieve a complete dose-response curve. All experiments were performed at serial dilutions in a concentration range of 100 µg/mL −25 ng/mL for recombinant HRNR fragments and 300 or 150 µg/mL–19 ng/mL for synthetic peptides.

E. coli ATCC 11775 = assay: CFU assay of antimicrobial activity; format: cell-based, Escherichia coli; conditions: 10 mM NaP, pH 5.5, 1% TSB
Procedure: as §1, §2

P. aeruginosa ATCC 10145 = conditions: CFU assay, 10 mM NaP
[1] = test system: Corynebacterium simulans DSM 44415; assay: CFU assay of antimicrobial activity; format: cell-based; conditions: 10 mM NaP, pH 6.0, 0.25% glucose
Procedure: All purified peptides and recombinant proteins were applied using a colony forming unit (CFU) assay in different media. Bacteria were grown to early log-phase in BHI, washed either with 10 mM Na-P, pH 7.4/1% TSB or pH 5.5/1% TSB, or pH 5.5 without TSB or BHI, and adjusted to a concentration of 10^4–10^5 colony forming units (CFU)/ml. For cell number control, 100 µl aliquots were diluted 1:10, 1:100 and 1:1000 and plated in duplicates on BHI agar plates. […]
as §2

[2] = test system: Burkholderia cepacia ATCC 25416; conditions: CFU assay, 10 mM NaP, pH 5.5, 0.25% glucose
E. coli ATCC 25922 = assay: CO-ADD MIC, broth microdilution (CLSI); format: cell-based, Escherichia coli; conditions: Mueller–Hinton broth, 5 × 10^5 CFU/mL, 18 h 37 °C, by CO-ADD
From the text: (§3) They were defined as the lowest peptide
(§4) Further details of the screening

[3] = test system: Klebsiella pneumonia ATCC 700603; conditions: MDR strain; CLSI, Mueller–Hinton broth, 5 × 10^5 CFU/mL, 18 h 37 °C, by CO-ADD
[4] = test system: Pseudomonas aeruginosa ATCC 27853; assay: CO-ADD MIC, broth microdilution (CLSI); format: cell-based; conditions: Mueller–Hinton broth, 5 × 10^5 CFU/mL, 18 h 37 °C, by CO-ADD
From the text: as §3, §4

[5] = test system: Acinetobacter baumannii ATCC 19606; assay: CO-ADD MIC, broth microdilution (CLSI); format: cell-based; conditions: Mueller–Hinton broth, 5 × 10^5 CFU/mL, 18 h 37 °C, by CO-ADD
From the text: as §3, §4

[6] = test system: Candida albicans ATCC 90028; assay: CO-ADD MIC, antifungal assay (CLSI); format: cell-based; conditions: Yeast Nitrogen Base broth, 24 h 35 °C, by CO-ADD
Procedure: (§5) Fungi strains were cultured for 3 days on Yeast Extract-Peptone Dextrose (YPD) agar at 30 °C. A yeast suspension of 1 × 10^6 to 5 × 10^6 cells/mL (as determined by OD530) was prepared from five colonies. These stock suspensions were diluted with Yeast Nitrogen Base (YNB) broth to a final concentration of 2.5 × 10^3 CFU/mL. […] Plates were covered and incubated at 35 °C for 24 h without shaking.

[7] = test system: Cryptococcus neoformans ATCC 208821; assay: CO-ADD MIC, antifungal assay (CLSI); format: cell-based; conditions: Yeast Nitrogen Base broth, 24 h 35 °C, by CO-ADD
Procedure: as §5

[8] = test system: Staphylococcus aureus ATCC 43300; conditions: MRSA; CLSI, Mueller–Hinton broth, 5 × 10^5 CFU/mL, 18 h 37 °C, by CO-ADD
[9] = CFU assay, 10 mM NaP, pH 5.5, 1% TSB
[10] = CFU assay, 10 mM NaP, pH 5.5, 0.25% glucose

Molecule | LD90 (C. albicans ATCC 24433; pH 5.5, 1% TSB) | LD100 (C. albicans ATCC 24433; pH 5.5, 1% TSB) | LD90 (E. coli ATCC 11775) | LD100 (E. coli ATCC 11775) | LD90 (P. aeruginosa ATCC 10145; pH 5.5, 1% TSB) | LD100 (P. aeruginosa ATCC 10145; pH 5.5, 1% TSB) | LD90 [1] | LD100 [1] | LD90 (P. aeruginosa ATCC 10145; pH 5.5, 0.25% glucose) | LD100 (P. aeruginosa ATCC 10145; pH 5.5, 0.25% glucose) | further results
rHRNR2638–2684: recombinant HRNR fragment (QSSGHGRQGSGSGQSPSRGRHGSGLGHSSSHGQHGSGSGRSSSRGPY; UniProt Q86YZ3 2638-2684, looked up, fragment) | 6.3 µg/mL | >100 µg/mL | 3.1 µg/mL | >100 µg/mL | 0.39 µg/mL | 12.5 µg/mL |  |  |  |  | 
HTQNSSSGQAASSHEQAR [FLG684-701] |  |  |  |  |  |  | > 150 µg/mL | > 150 µg/mL | > 300 µg/mL | > 300 µg/mL | 
QSGTHHAENSSGGQAASSHEQAR [FLG2301-2323] |  |  |  |  |  |  | > 150 µg/mL | > 150 µg/mL | > 300 µg/mL | 300 µg/mL | 
GRHGSGLGHSSSHGQHGSGSGRSSSRGPY [HR 1-17] | 18.8 µg/mL | 150 µg/mL | >300 µg/mL | >300 µg/mL | 0.59 µg/mL | 18.75 µg/mL |  |  | 0.038 µg/mL and 0.075 µg/mL | 0.15 µg/mL and 0.3 µg/mL | LD90 (C. albicans ATCC 24433; pH 5.5, 0.25% glucose): 18.8 µg/mL; LD100 (C. albicans ATCC 24433; pH 5.5, 0.25% glucose): 9.38 µg/mL; LD90 (S. aureus ATCC 6538; [9]): >300 µg/mL; LD100 (S. aureus ATCC 6538; [9]): >300 µg/mL; LD90 [2]: >300 µg/mL; LD100 [2]: >300 µg/mL
rHRNR2656–2684: recombinant HRNR fragment (GRHGSGLGHSSSHGQHGSGSGRSSSRGPY; UniProt Q86YZ3 2656-2684, looked up, fragment) | 6.3 µg/mL | >100 µg/mL | 3.1 µg/mL | >100 µg/mL | 0.78 µg/mL | 12.5 µg/mL |  |  |  |  | 
QSGTRHETSSGGQAASSQEQAR [FLG1652-1674] |  |  |  |  |  |  | > 150 µg/mL | > 150 µg/mL | > 300 µg/mL | > 300 µg/mL | 
QGSHHEQSVNRSGHSGSHHSHTTSQGR [FLG528-554] |  |  |  |  |  |  | > 150 µg/mL | > 150 µg/mL | 0.15 µg/mL | 0.59 µg/mL | activity against S. aureus ATCC 6538 (S. aureus ATCC 6538; at concentrations <60 µM (data not shown)): lack activity
QSGTRHTQTSSGGQAASSHEQAR [FLG2625-2647] |  |  |  |  |  |  | > 150 µg/mL | > 150 µg/mL | > 300 µg/mL | > 300 µg/mL | 
QSGTRHAETSSGGQAASSHEQAR [FLG3273-3295] |  |  |  |  |  |  | > 150 µg/mL | > 150 µg/mL | > 300 µg/mL | 300 µg/mL | 
CCCCCCCCCCCCCCCC(=O)NCC(=O)N[C@H](CCCNC(=N)N)C(=O)N[C@H](CCCNC(=N)N)C(=O)NCC(=O)NCC(=O)N[C@H](CCCNC(=N)N)C(=O)NCC(=O)NCC(=O)N[C@H](CCCNC(=N)N)C(=O)NCC(=O)N[C@H](CCCNC(=N)N)C(=O)NCC(=O)N[C@H](CCCNC(=N)N)C(=O)O [(D)-Pal-GR13] (Palmitoyl-G[dR][dR]GG[dR]GG[dR]G[dR]G[dR]-OH; C-terminus assumed) |  |  |  |  |  |  |  |  | 0.075 µg/mL | 0.3 µg/mL | Minimal inhibitory concentration (MIC) (E. coli ATCC 25922): 8 µg/mL (≈ 5.02 µM); Minimal inhibitory concentration (MIC) [3]: ≥32 µg/mL; LD90 (S. aureus ATCC 6538; [10]): 0.075 µg/mL; LD99 (concentration of peptide which kills 99.0% of inoculum) (S. aureus ATCC 6538; [10]): 0.59 µg/mL; LD100 (S. aureus ATCC 6538; [10]): 75 µg/mL; Minimal inhibitory concentration (MIC) [4]: 16 µg/mL (≈ 10 µM); Minimal inhibitory concentration (MIC) [5]: 8 µg/mL (≈ 5.02 µM); Minimal inhibitory concentration (MIC) [6]: 8 µg/mL (≈ 5.02 µM); Minimal inhibitory concentration (MIC) [7]: 2 µg/mL (≈ 1.26 µM); Minimal inhibitory concentration (MIC) [8]: 2 µg/mL (≈ 1.26 µM)
rHRNR2727–2850: recombinant HRNR fragment (protein, UniProt Q86YZ3 2727-2850, looked up, fragment) SGQSSTFDQEGSSTGQSSSYGHRGSGSSQSSGYGRHGAGSGQSLSHGRHGSGSGQSSSYGQHGSGSGQSSGYSQHGSGSGQDGYSYCKGGSNHDGGSSGSYFLSFPSSTSPYEYVQEQRCYFYQ | 8.6 µg/mL | 137 µg/mL | 0.28 µg/mL | >100 µg/mL | 2.1 µg/mL | 17.1 µg/mL |  |  |  |  | 
rHRNR1075–1172: recombinant HRNR fragment (protein, UniProt Q86YZ3 1075-1172, looked up, fragment) THGQHGSTSGQSSSCGQHGASSGQSSSHGQHGSGSSQSSGYGRQGSGSGQSPGHGQRGSGSRQSPSYGRHGSGSGRSSSSGQHGSGLGESSGFGHHES | 1.6 µg/mL | 12.5 µg/mL | 6.25 µg/mL | >100 µg/mL | 6.25 µg/mL | >100 µg/mL |  |  |  |  | 
